In patent US20230257396A1, “MACROCYCLES AND THEIR USE” (BLOSSOMHILL THERAPEUTICS, INC., priority 2020, published 2023):

What was measured:
Test in all cases: KINOMEscan kinase binding assay (Eurofins/DiscoveRx), % Ctrl
Conditions in all cases: 1 μM
kinases [1] = target: T1, kinases (Homo sapiens, UniProt P00519)
T1 construct: purchased Eurofins/DiscoveRx; host or cells: E. coli BL21-derived host (T7 phage display) for most kinases; HEK-293 for the rest
Method: (§1) Kinase binding assays were performed at Eurofins/DiscoveRx using the general KINOMEscan Protocol (Fabian, M. A. et al., “A small molecule-kinase interaction map for clinical kinase inhibitors,” Nat. Biotechnol. 2005, 23(3):329-36). For most assays, kinase-tagged T7 phage strains were prepared in an E. coli host derived from the BL21 strain. E. coli were grown to log-phase and infected with T7 phage and incubated with shaking at 32° C. until lysis. The lysates were centrifuged and filtered to remove cell debris. The remaining kinases were produced in HEK-293 cells and subsequently tagged with DNA for qPCR detection. Streptavidin-coated magnetic beads were treated with biotinylated small molecule ligands for 30 minutes at room temperature to generate affinity resins for kinase assays. The liganded beads were blocked with excess biotin and washed with blocking buffer (SeaBlock (Pierce), 1% BSA, 0.05% Tween 20, 1 mM DTT) to remove unbound ligand and to reduce nonspecific binding. Binding reactions were assembled by combining kinases, liganded affinity beads, and test compounds in 1×binding buffer (20% SeaBlock, 0.17×PBS, 0.05% Tween 20, 6 mM DTT). All reactions were performed in polystyrene 96-well plates in a final volume of 0.135 mL. The assay plates were incubated at room temperature with shaking for 1 hour and the affinity beads were washed with washbuffer (1×PBS, 0.05% Tween 20). The beads were then re-suspended in elution buffer (1× PBS, 0.05% Tween 20, 0.5 μM non-biotinylated affinity ligand) and incubated at room temperature with shaking for 30 minutes. The kinase concentration in the eluates was measured by qPCR. Results for compounds tested in this assay at a given concentration are reported as “% Ctrl”, where lower numbers indicate stronger binding in the matrix.
(§2) (test compound signal-positive control signal)/(negative control signal-positive control signal) X100

kinases [2] = target: T2, kinases (Homo sapiens, UniProt P09619)
T2 construct: purchased Eurofins/DiscoveRx; host or cells: E. coli BL21-derived host (T7 phage display) for most kinases; HEK-293 for the rest
Method: as §1, §2

kinases [3] = target: T3, kinases (Homo sapiens, UniProt P10721, L576P)
T3 construct: purchased Eurofins/DiscoveRx; host or cells: E. coli BL21-derived host (T7 phage display) for most kinases; HEK-293 for the rest
Method: as §1, §2

kinases [4] = target: T4, kinases (Homo sapiens, UniProt P00519, H396P)
T4 construct: purchased Eurofins/DiscoveRx; host or cells: E. coli BL21-derived host (T7 phage display) for most kinases; HEK-293 for the rest
Method: as §1, §2

kinases [5] = target: T5, kinases (Homo sapiens, UniProt P36888)
T5 construct: purchased Eurofins/DiscoveRx; host or cells: E. coli BL21-derived host (T7 phage display) for most kinases; HEK-293 for the rest
T5 sequence (P36888 27-993): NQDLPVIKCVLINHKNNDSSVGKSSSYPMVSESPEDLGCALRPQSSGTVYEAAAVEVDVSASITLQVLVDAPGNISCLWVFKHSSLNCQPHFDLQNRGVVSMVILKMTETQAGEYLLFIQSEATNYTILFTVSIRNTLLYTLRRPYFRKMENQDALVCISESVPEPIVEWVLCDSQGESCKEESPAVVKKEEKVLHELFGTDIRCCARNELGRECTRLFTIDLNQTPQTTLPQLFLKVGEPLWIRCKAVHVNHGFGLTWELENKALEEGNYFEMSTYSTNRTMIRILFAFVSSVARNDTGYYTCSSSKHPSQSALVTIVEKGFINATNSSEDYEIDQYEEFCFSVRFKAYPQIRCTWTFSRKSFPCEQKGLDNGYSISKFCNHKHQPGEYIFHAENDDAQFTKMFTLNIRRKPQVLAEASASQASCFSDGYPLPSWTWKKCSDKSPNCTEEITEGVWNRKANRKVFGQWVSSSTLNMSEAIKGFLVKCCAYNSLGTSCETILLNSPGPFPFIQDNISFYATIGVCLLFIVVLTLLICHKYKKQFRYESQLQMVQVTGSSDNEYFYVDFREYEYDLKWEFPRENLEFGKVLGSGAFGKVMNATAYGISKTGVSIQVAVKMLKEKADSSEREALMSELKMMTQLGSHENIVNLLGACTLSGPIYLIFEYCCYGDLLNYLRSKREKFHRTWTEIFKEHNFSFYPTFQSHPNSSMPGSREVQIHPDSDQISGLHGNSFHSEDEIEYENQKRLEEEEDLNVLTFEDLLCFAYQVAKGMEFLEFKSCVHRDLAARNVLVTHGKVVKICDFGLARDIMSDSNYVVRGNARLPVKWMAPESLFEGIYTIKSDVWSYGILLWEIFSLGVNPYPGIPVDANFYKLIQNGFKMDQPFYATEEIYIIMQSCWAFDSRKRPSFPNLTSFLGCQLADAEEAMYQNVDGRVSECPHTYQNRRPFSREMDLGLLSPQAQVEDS
Method: as §1, §2

kinases [6] = target: T6, kinases (Homo sapiens, UniProt P00533, G719C)
T6 construct: purchased Eurofins/DiscoveRx; host or cells: E. coli BL21-derived host (T7 phage display) for most kinases; HEK-293 for the rest
Method: as §1, §2

kinases [7] = target: T7, kinases (Homo sapiens, UniProt P10721, V559D/V654A)
T7 construct: purchased Eurofins/DiscoveRx; host or cells: E. coli BL21-derived host (T7 phage display) for most kinases; HEK-293 for the rest
Method: as §1, §2

kinases [8] = target: T8, kinases (Homo sapiens, UniProt P00533, T790M)
T8 construct: purchased Eurofins/DiscoveRx; host or cells: E. coli BL21-derived host (T7 phage display) for most kinases; HEK-293 for the rest
Method: as §1, §2

kinases [9] = target: T9, kinases (Homo sapiens, UniProt P07949, V804L)
T9 construct: purchased Eurofins/DiscoveRx; host or cells: E. coli BL21-derived host (T7 phage display) for most kinases; HEK-293 for the rest
Method: as §1, §2

kinases [10] = target: T10, kinases (Homo sapiens, UniProt P00519, Y253F)
T10 construct: purchased Eurofins/DiscoveRx; host or cells: E. coli BL21-derived host (T7 phage display) for most kinases; HEK-293 for the rest
Method: as §1, §2

kinases [11] = target: T11, kinases (Homo sapiens, UniProt P07949, M918T)
T11 construct: purchased Eurofins/DiscoveRx; host or cells: E. coli BL21-derived host (T7 phage display) for most kinases; HEK-293 for the rest
Method: as §1, §2

kinases [12] = target: T12, kinases (Homo sapiens, UniProt P00533, DEL752-759)
T12 construct: purchased Eurofins/DiscoveRx; host or cells: E. coli BL21-derived host (T7 phage display) for most kinases; HEK-293 for the rest
Method: as §1, §2

kinases [13] = target: T13, kinases (Homo sapiens, UniProt P07949)
T13 construct: purchased Eurofins/DiscoveRx; host or cells: E. coli BL21-derived host (T7 phage display) for most kinases; HEK-293 for the rest
Method: as §1, §2

kinases [14] = target: T14, kinases (Homo sapiens, UniProt P00519, M351T)
T14 construct: purchased Eurofins/DiscoveRx; host or cells: E. coli BL21-derived host (T7 phage display) for most kinases; HEK-293 for the rest
Method: as §1, §2

T3 sequence (P10721 26-976 L576P): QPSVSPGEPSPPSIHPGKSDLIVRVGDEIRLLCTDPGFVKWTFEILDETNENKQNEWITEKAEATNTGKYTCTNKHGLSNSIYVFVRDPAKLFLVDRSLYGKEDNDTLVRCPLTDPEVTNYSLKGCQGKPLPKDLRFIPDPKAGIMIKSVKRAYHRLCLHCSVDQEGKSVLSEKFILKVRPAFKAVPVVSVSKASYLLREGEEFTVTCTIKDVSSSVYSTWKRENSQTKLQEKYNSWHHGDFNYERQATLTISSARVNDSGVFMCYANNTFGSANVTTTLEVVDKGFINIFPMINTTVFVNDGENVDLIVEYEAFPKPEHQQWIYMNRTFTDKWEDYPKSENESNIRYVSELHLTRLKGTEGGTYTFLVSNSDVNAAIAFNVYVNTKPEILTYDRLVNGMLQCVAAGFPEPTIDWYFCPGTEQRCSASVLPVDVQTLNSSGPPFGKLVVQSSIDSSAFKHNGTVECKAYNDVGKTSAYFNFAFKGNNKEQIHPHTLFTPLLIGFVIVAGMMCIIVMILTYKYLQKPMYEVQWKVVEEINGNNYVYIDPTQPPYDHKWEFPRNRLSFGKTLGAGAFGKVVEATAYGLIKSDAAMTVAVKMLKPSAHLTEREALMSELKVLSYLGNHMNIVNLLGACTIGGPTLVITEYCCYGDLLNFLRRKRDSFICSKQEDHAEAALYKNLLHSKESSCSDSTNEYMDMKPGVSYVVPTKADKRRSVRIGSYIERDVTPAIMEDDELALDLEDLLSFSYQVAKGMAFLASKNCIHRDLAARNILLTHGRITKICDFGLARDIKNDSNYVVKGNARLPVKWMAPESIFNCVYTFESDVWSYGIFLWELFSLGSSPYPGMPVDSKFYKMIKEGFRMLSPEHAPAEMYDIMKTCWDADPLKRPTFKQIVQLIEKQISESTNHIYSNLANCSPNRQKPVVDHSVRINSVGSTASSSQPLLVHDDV
T7 sequence (P10721 26-976 V559D/V654A): as the sequence (P10721 26-976 L576P) above, with V534D, P551L, V629A counted along it
T9 sequence (P07949 29-1114 V804L): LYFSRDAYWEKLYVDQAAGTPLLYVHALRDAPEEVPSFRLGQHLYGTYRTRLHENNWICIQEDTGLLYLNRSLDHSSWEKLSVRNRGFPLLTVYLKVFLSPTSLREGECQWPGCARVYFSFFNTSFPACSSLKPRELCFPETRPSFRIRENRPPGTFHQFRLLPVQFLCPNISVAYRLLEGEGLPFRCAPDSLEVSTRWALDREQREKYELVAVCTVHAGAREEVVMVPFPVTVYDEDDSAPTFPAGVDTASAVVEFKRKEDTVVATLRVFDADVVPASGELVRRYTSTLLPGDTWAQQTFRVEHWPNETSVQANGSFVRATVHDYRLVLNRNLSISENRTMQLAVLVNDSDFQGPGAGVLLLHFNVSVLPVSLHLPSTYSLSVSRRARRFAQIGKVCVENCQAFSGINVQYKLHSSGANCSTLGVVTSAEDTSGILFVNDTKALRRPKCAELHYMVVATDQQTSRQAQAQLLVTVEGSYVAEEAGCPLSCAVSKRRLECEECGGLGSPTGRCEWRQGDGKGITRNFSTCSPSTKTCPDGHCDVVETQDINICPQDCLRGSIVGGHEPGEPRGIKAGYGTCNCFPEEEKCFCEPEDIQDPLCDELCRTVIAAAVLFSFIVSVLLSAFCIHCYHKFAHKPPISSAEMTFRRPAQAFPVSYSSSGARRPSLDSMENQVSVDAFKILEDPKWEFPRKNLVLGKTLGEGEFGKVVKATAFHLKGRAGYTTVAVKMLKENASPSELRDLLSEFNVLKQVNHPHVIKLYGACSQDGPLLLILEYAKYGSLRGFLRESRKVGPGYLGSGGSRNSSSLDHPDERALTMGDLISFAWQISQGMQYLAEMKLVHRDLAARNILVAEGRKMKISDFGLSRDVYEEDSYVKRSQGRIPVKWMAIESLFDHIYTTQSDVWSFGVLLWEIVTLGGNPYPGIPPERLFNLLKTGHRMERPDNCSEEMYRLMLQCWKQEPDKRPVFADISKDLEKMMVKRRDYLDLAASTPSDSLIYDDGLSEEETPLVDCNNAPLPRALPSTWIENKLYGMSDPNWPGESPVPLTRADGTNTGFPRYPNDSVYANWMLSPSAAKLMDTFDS
T13 sequence (P07949 29-1114): as the sequence (P07949 29-1114 V804L) above, with L776V counted along it
T11 sequence (P07949 29-1114 M918T): as the sequence (P07949 29-1114 V804L) above, with L776V, M890T counted along it
T2 sequence (P09619 33-1106): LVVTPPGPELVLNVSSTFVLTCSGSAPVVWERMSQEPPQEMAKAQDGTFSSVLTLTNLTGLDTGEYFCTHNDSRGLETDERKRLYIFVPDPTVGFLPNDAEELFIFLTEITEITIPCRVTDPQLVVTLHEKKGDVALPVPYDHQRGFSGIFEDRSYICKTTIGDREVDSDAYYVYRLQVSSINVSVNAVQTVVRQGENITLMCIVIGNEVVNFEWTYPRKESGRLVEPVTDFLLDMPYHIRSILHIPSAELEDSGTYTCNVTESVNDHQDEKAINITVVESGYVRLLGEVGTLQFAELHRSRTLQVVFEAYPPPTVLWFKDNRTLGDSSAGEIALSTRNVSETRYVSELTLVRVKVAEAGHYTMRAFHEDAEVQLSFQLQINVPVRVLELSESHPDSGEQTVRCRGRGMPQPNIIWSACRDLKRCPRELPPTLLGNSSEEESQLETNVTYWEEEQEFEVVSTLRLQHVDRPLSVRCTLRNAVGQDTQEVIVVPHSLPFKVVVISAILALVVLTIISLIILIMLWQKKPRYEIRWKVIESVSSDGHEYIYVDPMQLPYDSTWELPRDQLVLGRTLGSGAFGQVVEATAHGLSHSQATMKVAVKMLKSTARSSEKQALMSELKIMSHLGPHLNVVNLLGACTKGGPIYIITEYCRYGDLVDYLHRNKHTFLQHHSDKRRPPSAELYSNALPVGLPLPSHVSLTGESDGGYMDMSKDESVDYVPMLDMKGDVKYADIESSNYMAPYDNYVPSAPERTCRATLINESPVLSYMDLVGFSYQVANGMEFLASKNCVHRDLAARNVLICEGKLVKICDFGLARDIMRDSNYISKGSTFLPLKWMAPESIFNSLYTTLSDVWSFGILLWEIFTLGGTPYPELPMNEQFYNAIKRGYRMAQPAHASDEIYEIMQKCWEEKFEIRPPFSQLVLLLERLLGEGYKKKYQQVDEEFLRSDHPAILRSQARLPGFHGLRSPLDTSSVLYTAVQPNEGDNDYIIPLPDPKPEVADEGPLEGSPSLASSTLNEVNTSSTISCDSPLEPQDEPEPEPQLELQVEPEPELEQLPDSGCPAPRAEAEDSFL

SMILES	% Ctrl, ABL1-nonphosphorylated (kinases [1]; ABL1-nonphosphorylated) [% Ctrl]	% Ctrl, ABL1-phosphorylated (kinases [1]; ABL1-phosphorylated) [% Ctrl]	% Ctrl, PDGFRB (kinases [2]; PDGFRB) [% Ctrl]	% Ctrl, KIT(L576P) (kinases [3]; KIT(L576P)) [% Ctrl]	% Ctrl, ABL1(H396P)-nonphosphorylated (kinases [4]; ABL1(H396P)-nonphosphorylated) [% Ctrl]	% Ctrl, ABL1(H396P)-phosphorylated (kinases [4]; ABL1(H396P)-phosphorylated) [% Ctrl]	% Ctrl, FLT3 (kinases [5]; FLT3) [% Ctrl]	% Ctrl, FLT3-autoinhibited (kinases [5]; FLT3-autoinhibited) [% Ctrl]	% Ctrl, EGFR(G719C) (kinases [6]; EGFR(G719C)) [% Ctrl]	% Ctrl, KIT(V559D, V654A) (kinases [7]; KIT(V559D, V654A)) [% Ctrl]	% Ctrl, EGFR(T790M) (kinases [8]; EGFR(T790M)) [% Ctrl]	% Ctrl, RET(V804L) (kinases [9]; RET(V804L)) [% Ctrl]	% Ctrl, ABL1(Y253F)-phosphorylated (kinases [10]; ABL1(Y253F)-phosphorylated) [% Ctrl]	% Ctrl, RET(M918T) (kinases [11]; RET(M918T)) [% Ctrl]	% Ctrl, EGFR(S752-I759del) (kinases [12]; EGFR(S752-I759del)) [% Ctrl]	% Ctrl, RET (kinases [13]; RET) [% Ctrl]	% Ctrl, ABL1(M351T)-phosphorylated (kinases [14]; ABL1(M351T)-phosphorylated) [% Ctrl]	further results
CNC(=O)[C@H]1CN(C)C(=O)c2cc(C)[nH]c2/C=C2\C(=O)Nc3cc(Cl)c(cc32)OCCO1 [Ex. 135, [7R,16a(17)Z]-19-chloro-N,2,5-trimethyl-4,16-dioxo-4,5,6,7,9,10,15,16-octahydro-1H-12,14-(ethanediylidene)dipyrrolo[3,2-i:3′,4′-l][1,4,7]dioxazacyclopentadecine-7-carboxamide]	33	58	80	8.5	29	54	57	89	82	59	94	60	55	36	92	33	48	
CN1CCOc2cc3c(cc2Cl)NC(=O)/C3=C\c2[nH]ccc2C(=O)N(C)CC1 [Ex. 164, [16a(17)Z]-19-chloro-2,5,8-trimethyl-5,6,7,8,9,10-hexahydro-12,14-(ethanediylidene)dipyrrolo[3,2-i:3′,4′-l][1,4,7]oxadiazacyclopentadecine-4,16(1H,15H)-dione]																		% Ctrl, ABL1-nonphosphorylated (kinases [1]; target ABL1-nonphosphorylated): 0.1 % Ctrl; % Ctrl, ABL1-phosphorylated (kinases [1]; target ABL1-phosphorylated): 0.1 % Ctrl; % Ctrl, PDGFRB (kinases [2]; target PDGFRB): 0.9 % Ctrl; % Ctrl, KIT(L576P) (kinases [3]; target KIT(L576P)): 0.9 % Ctrl; % Ctrl, ABL1(H396P)-nonphosphorylated (kinases [4]; target ABL1(H396P)-nonphosphorylated): 0 % Ctrl; % Ctrl, ABL1(H396P)-phosphorylated (kinases [4]; target ABL1(H396P)-phosphorylated): 0 % Ctrl; % Ctrl, FLT3 (kinases [5]; target FLT3): 2.5 % Ctrl; % Ctrl, FLT3-autoinhibited (kinases [5]; target FLT3-autoinhibited): 63 % Ctrl; % Ctrl, EGFR(G719C) (kinases [6]; target EGFR(G719C)): 82 % Ctrl; % Ctrl, KIT(V559D, V654A) (kinases [7]; target KIT(V559D, V654A)): 27 % Ctrl; % Ctrl, EGFR(T790M) (kinases [8]; target EGFR(T790M)): 97 % Ctrl; % Ctrl, RET(V804L) (kinases [9]; target RET(V804L)): 1.2 % Ctrl; % Ctrl, ABL1(Y253F)-phosphorylated (kinases [10]; target ABL1(Y253F)-phosphorylated): 0.1 % Ctrl; % Ctrl, RET(M918T) (kinases [11]; target RET(M918T)): 0 % Ctrl; % Ctrl, EGFR(S752-I759del) (kinases [12]; target EGFR(S752-I759del)): 55 % Ctrl; % Ctrl, RET (kinases [13]; target RET): 0 % Ctrl; % Ctrl, ABL1(M351T)-phosphorylated (kinases [14]; target ABL1(M351T)-phosphorylated): 0.3 % Ctrl
Cc1cc2c([nH]1)/C=C1\C(=O)Nc3ccc(cc31)-c1ccnn1CCOCCN(C)C2=O [Ex. 41, [19a(20)Z]-2,5-dimethyl-6,7,9,10-tetrahydro-1H-15,17-(ethanediylidene)pyrazolo[1,5-d]dipyrrolo[3,4-h:2′,3′-k][1,4,14]oxadiazacyclohexadecine-4,19(5H,18H)-dione]	7.1	56	5.5	40	6.1	5	5.5	50	88	93	36	17	49	45	89	34	53	
Cc1cc2c([nH]1)/C=C1\C(=O)Nc3ccc(cc31)-c1c(noc1C)COCCN(C)C2=O [Ex. 128, [3a(4)Z]-6,9,16-trimethyl-1,11-dihydro-2H,13H-1,17-(ethanediylidene)[1,4]oxazolo[4,3-m]dipyrrolo[3,2-f:3′,4′-i][1,4]oxazacyclopentadecine-3,8(5H,9H)-dione]	60	51	85	100	28	51	66	89	97	100	75	56	49	93	98	83	39	
